The test system of assay [1] is E. mitis, E. hagani, E. praecox, E. acervulina, E. maxima, E. necatrix, E. tenella and E. brunetti. Briefly: Prophylactic anticoccidial effect, additional trials in chickens of Habbared X breed (8 Eimeria strains). In kind it is in vivo. The conditions noted are these: B700 100 ppm. The procedure:
In yet another evaluation of the prophylactic anticoccidial effect of the present compounds, additional trials on chickens of Habbared X breed were performed. The same test protocol as the one previously employed for this breed of chickens was used, albeit with the following following modifications: • i) On day 8 after hatch, the chickens received feed containing B700 (100 ppm), JA 3 (200 ppm) or Coxistac (100 ppm); • ii) On day 11 after hatch, the chickens were infected orally by oocysts containing a mixture of 8 mature sporulated strains, namely E. mitis, E. hagani, E. praecox, E. acervulina, E. maxima, E. necatrix, E. tenella and E. brunetti. The results of this evaluation were slightly unexpected.

Another assay relates to M. gallisepticum. The assay can be described thus: M.I.C. against Mycoplasma in microtitre plates (Tanner and Wu). In kind it is cell-based. The conditions noted are these: in vitro; for MIC: Mycoplasmoides gallisepticum. How it is done: The M.I.C. values of the compounds JA 1, JA 3, JA 5, JA 12, JA 42 and JA 43 were determined in vitro against M. gallisepticum. Enrofloxacin, tylosin and oxytetracyclin were used as reference compounds. The tested compounds were all stored and applied as solutions in distilled water. The M.I.C. evaluation was performed in microtitre plates, and the methodology employed was basically that of Tanner and Wu (Avian Disease, 36:714-717 (1992)).

Another assay has as its system Streptococcus faecium. The assay can be described thus: M.I.C. by broth dilution method (NCCLS 1988), gram-positive bacteria. Type of assay: cell-based. The conditions noted are these: Enterococcus faecium, in vitro broth dilution, read-out: M.I.C. values Streptoc. faecium. How it is done: (§1) The antibacterial activity of the present compounds was investigated by in vitro evaluation of their M.I.C. (Minimum Inhibitory Concentration) values. The evaluation was conducted in complete accordance with the “Broth dilution method”, as outlined by the U.S. National Committee for Clinical Laboratory Standards “NCCLS 1988”.
(§2) Solutions of the present compounds were prepared by dissolving 0.01 g of a test compound in either 10% KOH (aq) or a 10% KOH/DMF mixture, after which sterile, distilled H2O was added up to a total volume of 10 ml, thereby yielding a test compound concentration of 1 000 μg/ml.
(§3) In this evaluation, the antibacterial activity of the present compounds and enrofloxacin as reference compound was tested against seven strains of gram-positive bacteria, namely Bacillus subtilus (ATCC 6633), Bacillus cereus, Streptococcus faecium, Micrococcus Luteus (ATCC 9341), Staph. aureus (ATCC 29737), Staph. epidermidis (ATCC 12228) and Staphylococcus (ATCC 6538).

Assay [2] has as its system Bacillus subtilus (ATCC 6633). The assay is described as above. Type of assay: cell-based. The settings on record: ATCC6633, in vitro broth dilution. How it is done:
as §1, §2, §3

Assay [3] concerns Staph. epidermidis (ATCC 12228). Described as above. The settings on record: Staphylococcus epidermidis, ATCC12228, in vitro broth dilution. In kind it is cell-based. The procedure:
as §1, §2, §3

Assay [4] concerns Staphylococcus (ATCC 6538). The description is as above. The settings on record: ATCC6538, in vitro broth dilution, read-out: M.I.C. values Staph. (ATCC 6538). In kind it is cell-based. How it is done:
as §1, §2, §3

Assay [5] deals with Staph. aureus (ATCC 29737). Described as above. The conditions noted are these: Staphylococcus aureus, ATCC29737, in vitro broth dilution. In kind it is cell-based. How it is done:
as §1, §2, §3

The next assay relates to Bacillus cereus. The assay is described as above. The conditions noted are these: in vitro broth dilution. Type of assay: cell-based. How it is done: as §1, §2, §3
The test system of assay [6] is Micrococcus Luteus (ATCC 9341). The description is as above. In kind it is cell-based. The settings on record: ATCC9341, in vitro broth dilution, read-out: M.I.C. values Microc. Luteus. How it is done: as §1, §2, §3
The subject of the next assay is T. evansi. The assay can be described thus: Antitrypanosomal activity in vivo in white albino rats (Giemsa blood smears). The conditions noted are these: individual animals. How it is done: The antitrypanosomal activity of the present compounds was evaluated in vivo on 40 white albino rats. The rats were divided into 4 groups of 10 rats each. The rats were then inoculated intraperitoneally with 10^3 organisms of T. evansi (isolated from blood of naturally infected camels) in accordance with known methodology (see Kolmer, J. A., J. Infect. Dis., 17:78-95 (1915)). The progress of the infection was monitored with the aid of standard Giemsa procedure (see Cruickshank, R., Handbook of Bacteriology, E and S Livingstone Ltd., Edinborough and London, 1961), whereby peripheral blood samples from the rats were examined under microscope. The number of Trypanosoma organisms in every blood sample was calculated and classified as follows (the numbers below are given for fields examined on a microscope slide): • +++=>10 organisms • ++=5-10 organisms • +=1-4 organisms • 0=no organisms detected
On day 1 post infection, each group of rats was subcutaneously injected with a single dose of tested compound in an amount of 50.0 mg/kg body weight. The following drugs were administered:
Group #4: saline solution (control group)

Setting [7] is: day 1 post infection (day of dosing), single s.c. dose 50.0 mg/kg.
Where [8] appears, read: day 3 post infection, single s.c. dose 50.0 mg/kg on day 1, 50 mg/kg.
The mark [9] stands for this setting: day 5 post infection, single s.c. dose 50.0 mg/kg on day 1, 50 mg/kg.
Setting [10] is: day 7 post infection, single s.c. dose 50.0 mg/kg on day 1, 50 mg/kg.
The mark [11] stands for this setting: day 9 post infection, single s.c. dose 50.0 mg/kg on day 1, 50 mg/kg.
[12] abbreviates: day 11 post infection, single s.c. dose 50.0 mg/kg on day 1, 50 mg/kg.
The mark [13] stands for this setting: day 13 post infection, single s.c. dose 50.0 mg/kg on day 1, 50 mg/kg.

The values that follow come from US6967205B1, “Compounds with antibacterial and antiparasitic properties” (New Pharma Research Sweden AB, priority 1999, dated 2005).

Values after ≈ are worked out from the molar mass of the structure shown. Values joined by “and” are separate entries in the source; they are usually repeats but may differ in a detail not shown here. Equal entries are not always repeated.

On to `O=C(O)c1cn(C2CC2)c2cc(N3CCN(C(=O)Nc4ccc([N+](=O)[O-])cc4)CC3)c(F)cc2c1=O` [B700, 1-cyclopropyl-6-fluoro-7-{4-[(4-nitroanilino)carbonyl]-1-piperazinyl}-4-oxo-1,4-dihydro-3-quinolinecarboxylic acid], for which the “anticoccidial activity (in words)” value in [1] (JA 3 200 ppm in feed from day 8, infected day 11) is listed as “significant anticoccidial activity”. Besides, in assay [1] (JA 3 200 ppm, Coxistac 100 ppm), the “increased body weight gain as compared to the Coxistac treated group” value is given as “approximately 10%” and the “total number of oocysts during the treatment compared to Coxistac group” value is “higher than for the group treated with Coxistac”.

With `CCN1CCN(c2cc3c(cc2F)c(=O)c(C(=O)O)cn3C2CC2)CC1` [Enrofloxacin, enrofloxacin, reference compound], the MIC worked out at 0.06 µg/mL (≈ 0.167 µM) against M. gallisepticum (microtitre plates); 1 µg/mL (≈ 2.78 µM) with Streptococcus faecium; 0.5 µg/mL (≈ 1.39 µM) in assay [2]; 0.12 µg/mL (≈ 0.334 µM) in assay [3]; 0.12 µg/mL (≈ 0.334 µM) in assay [4]; 0.25 µg/mL (≈ 0.696 µM) in assay [5]. The MIC came to 0.25 µg/mL (≈ 0.696 µM) in the assay on Bacillus cereus and 2 µg/mL (≈ 5.56 µM) in assay [6].

Take `O=C(O)c1cn(C2CC2)c2cc(N3CCN(S(=O)(=O)c4ccccc4)CC3)c(F)cc2c1=O` [JA 1, 1-cyclopropyl-6-fluoro-4-oxo-7-[4-(phenylsulfonyl)-1-piperazinyl]-1,4-dihydro-3-quinolinecarboxylic acid]: the MIC came out at 0.03 µg/mL (≈ 0.0636 µM) with M. gallisepticum (microtitre plates); 0.5 µg/mL (≈ 1.06 µM) with Streptococcus faecium; 0.06 µg/mL (≈ 0.127 µM) in assay [2]; 0.06 µg/mL (≈ 0.127 µM) in assay [3]; 0.06 µg/mL (≈ 0.127 µM) in assay [4]; 0.12 µg/mL (≈ 0.255 µM) in [5]. Further, the figures for the MIC (against Bacillus cereus; in [6]) were 0.06 µg/mL (≈ 0.127 µM) and 0.5 µg/mL (≈ 1.06 µM), respectively. Further, the “antibacterial activity against M. gallisepticum (in words)” value in the assay with M. gallisepticum is recorded as “high antibacterial activity”.

Take `O=C(O)c1cn(C2CC2)c2cc(N3CCN(S(=O)(=O)c4ccc(Cl)s4)CC3)c(F)cc2c1=O` [JA 43, 7-{4-[(5-chloro-2-thienyl)sulfonyl]-1-piperazinyl}-1-cyclopropyl-6-fluoro-4-oxo-1,4-dihydro-3-quinolinecarboxylic acid]: the MIC with M. gallisepticum (microtitre plates) was determined as 0.25 µg/mL (≈ 0.488 µM); in the assay with Streptococcus faecium, 1 µg/mL (≈ 1.95 µM); in [2] it was 0.25 µg/mL (≈ 0.488 µM); in assay [3] it was 0.25 µg/mL (≈ 0.488 µM); in [4], 0.03 µg/mL (≈ 0.0586 µM); in assay [5] it was 0.12 µg/mL (≈ 0.234 µM). Also, the MIC in the assay on Bacillus cereus worked out at 0.12 µg/mL (≈ 0.234 µM); in [6], 1 µg/mL (≈ 1.95 µM).

On to `O=C(O)c1cn(C2CC2)c2cc(NCc3ccncc3)c(F)cc2c1=O` [JA 68, 1-cyclopropyl-6-fluoro-4-oxo-7-[(4-pyridinylmethyl)amino]-1,4-dihydro-3-quinolinecarboxylic acid], for which the MIC in the assay on Streptococcus faecium came out at 1 µg/mL (≈ 2.83 µM); in [2], 0.12 µg/mL (≈ 0.34 µM); in [3], 0.25 µg/mL (≈ 0.708 µM); in [4], 0.12 µg/mL (≈ 0.34 µM); in assay [5], 0.12 µg/mL (≈ 0.34 µM); in the assay with Bacillus cereus it was 0.06 µg/mL (≈ 0.17 µM). The MIC in [6] is 2 µg/mL (≈ 5.66 µM). For the same compound, the “Number of T. evansi per examined field” value with T. evansi (setting [7]) was “+ (+=1-4 organisms)”; in the assay with T. evansi (setting [8]) it was “++ (++=5-10 organisms) (9×) and 0 (0=no organisms detected)”; in the assay on T. evansi (setting [9]), 0 (0=no organisms detected) (8×) and ++ (++=5-10 organisms) (2×); with T. evansi (setting [10]) it was “+++ (+++=>10 organisms) and 0 (0=no organisms detected) (9×)”; in the assay with T. evansi (setting [11]), 0 (0=no organisms detected) (9×) and dead; with T. evansi (setting [12]) it was 0 (0=no organisms detected) (9×) and dead. Moreover, in the assay with T. evansi (setting [13]), the “Number of T. evansi per examined field” value was 0 (0=no organisms detected) (9×) and dead.

Turning to `CC(C)c1ccc(Nc2cc3c(cc2F)c(=O)c(C(=O)O)cn3C2CC2)cc1` [JA 74, 1-cyclopropyl-6-fluoro-7-(4-isopropylanilino)-4-oxo-1,4-dihydro-3-quinolinecarboxylic acid], the MIC amounted to 2 µg/mL (≈ 5.26 µM) with Streptococcus faecium; 0.12 µg/mL (≈ 0.315 µM) in assay [2]; 0.12 µg/mL (≈ 0.315 µM) in assay [3]; 0.12 µg/mL (≈ 0.315 µM) in [4]; 0.12 µg/mL (≈ 0.315 µM) in [5]; 0.12 µg/mL (≈ 0.315 µM) with Bacillus cereus. Besides, the MIC in assay [6] worked out at 2 µg/mL (≈ 5.26 µM). Besides, the “Number of T. evansi per examined field” value in the assay on T. evansi (setting [7]) is “+ (+=1-4 organisms)”; with T. evansi (setting [8]), “++ (++=5-10 organisms)”; in the assay with T. evansi (setting [9]) it was “+++ (+++=>10 organisms) and 0 (0=no organisms detected) (6×) and ++ (++=5-10 organisms) (2×) and + (+=1-4 organisms)”; with T. evansi (setting [10]), “dead and 0 (0=no organisms detected) (9×)”; in the assay on T. evansi (setting [11]), “dead and 0 (0=no organisms detected) (9×)”; with T. evansi (setting [12]), “dead and 0 (0=no organisms detected) (9×)”. The “Number of T. evansi per examined field” value in the assay with T. evansi (setting [13]) was “dead and 0 (0=no organisms detected) (9×)”.

Take `O=C(O)c1cn(C2CC2)c2cc(N3CCC(CNC(=S)Nc4ccccc4)CC3)c(F)cc2c1=O` [JA 110, 7-(4-{[(anilinocarbothioyl)amino]methyl}-1-piperidinyl)-1-cyclopropyl-6-fluoro-4-oxo-1,4-dihydro-3-quinolinecarboxylic acid]: the “Number of T. evansi per examined field” value in the assay with T. evansi (setting [7]) was “+ (+=1-4 organisms)”; in the assay with T. evansi (setting [8]) it was “++ (++=5-10 organisms)”; in the assay with T. evansi (day 5 post infection, single s.c. dose 50.0 mg/kg on day 1), “++ (++=5-10 organisms)”; in the assay with T. evansi (day 7 post infection, single s.c. dose 50.0 mg/kg on day 1), “++ (++=5-10 organisms)”; in the assay on T. evansi (setting [11]), “+ (+=1-4 organisms) and 0 (0=no organisms detected) (9×)”; in the assay on T. evansi (setting [12]), “+ (+=1-4 organisms) and 0 (0=no organisms detected) (9×)”. In the assay on T. evansi (day 13 post infection, single s.c. dose 50.0 mg/kg on day 1), the “Number of T. evansi per examined field” value is on record as 0 (0=no organisms detected).

For the compound `CN(C)[C@@H]1C(=O)C(C(N)=O)=C(O)[C@@]2(O)C(=O)C3=C(O)c4c(O)cccc4[C@@](C)(O)[C@H]3[C@H](O)[C@@H]12` [Oxytetracyclin, oxytetracyclin, reference compound], the “M.I.C. values against M. gallisepticum” value in the assay with M. gallisepticum (microtitre plates) was 0.12.

For the compound `CC[C@H]1OC(=O)C[C@@H](O)[C@H](C)[C@@H](O[C@@H]2O[C@H](C)[C@@H](O[C@H]3C[C@@](C)(O)[C@@H](O)[C@H](C)O3)[C@H](N(C)C)[C@H]2O)[C@@H](CC=O)C[C@@H](C)C(=O)/C=C/C(C)=C/[C@@H]1CO[C@@H]1O[C@H](C)[C@@H](O)[C@@H](OC)[C@H]1OC` [Tylosin, tylosin, reference compound], in the assay with M. gallisepticum (microtitre plates), the MIC was 0.06 µg/mL (≈ 0.0655 µM).
